test system: not listed separately; experiment: AUC (0 to infinity) in Sprague-Dawley rat at 2 mg/kg, iv administered as single dose by LC-MS/MS analysis; type: ADME, organism-based; set-up: dose 2 mg/kg, route intravenous, time infinity; conditions: Sprague-Dawley, in vivo

Row | SMILES | AUC(0-inf) [ng·h/mL]
1 | CC1=Nc2ccc(-c3nc(Nc4ccc(N5CCN(C)CC5)cn4)ncc3F)cc2C12CCCC2 | 458
2 | CCC1(C)C(C)=Nc2c(F)cc(-c3nc(Nc4ccc(N5CCNCC5)cn4)ncc3F)cc21 (stereo unspecified) | 270
3 | CC1=Nc2ccc(-c3nc(Nc4ccc(N5CCNCC5)cn4)ncc3F)cc2C12CCCC2 | 1180
4 | CC1=Nc2c(F)cc(-c3nc(Nc4ccc(N5CCN(C)CC5)cn4)ncc3F)cc2C12CCCC2 | 796

biological target: Cyclin-dependent kinase 4/cyclin D1 (Homo sapiens, UniProt P11802); experiment: Inhibition of CDK4/Cyclin-D1 (unknown origin) using histone-H1 as substrate after 90 mins by ADP-Glo assay; type: protein-complex assay; conditions: not given
Sequence (P11802 whole entry): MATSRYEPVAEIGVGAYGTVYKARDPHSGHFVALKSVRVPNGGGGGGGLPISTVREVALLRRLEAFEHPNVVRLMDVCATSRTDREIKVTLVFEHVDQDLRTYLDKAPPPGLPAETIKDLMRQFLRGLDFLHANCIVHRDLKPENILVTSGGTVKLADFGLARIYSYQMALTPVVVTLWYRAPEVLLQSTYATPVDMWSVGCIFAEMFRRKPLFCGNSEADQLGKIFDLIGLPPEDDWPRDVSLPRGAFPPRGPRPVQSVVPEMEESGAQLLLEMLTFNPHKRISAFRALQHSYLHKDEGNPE
Sequence (P24385 whole entry, further chain): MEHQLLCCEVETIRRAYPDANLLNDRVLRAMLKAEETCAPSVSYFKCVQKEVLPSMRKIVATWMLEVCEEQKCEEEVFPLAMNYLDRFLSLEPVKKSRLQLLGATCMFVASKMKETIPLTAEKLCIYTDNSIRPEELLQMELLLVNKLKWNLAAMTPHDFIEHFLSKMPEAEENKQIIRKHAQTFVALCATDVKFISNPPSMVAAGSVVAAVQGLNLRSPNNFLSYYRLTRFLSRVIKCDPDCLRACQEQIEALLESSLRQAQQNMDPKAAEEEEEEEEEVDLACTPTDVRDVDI

Row | SMILES | IC50 [nM]
5 | CC1=Nc2ccc(-c3nc(Nc4ccc(N5CCN(C)CC5)cn4)ncc3F)cc2C12CCCC2 | 15
6 | CCC1(C)C(C)=Nc2c(F)cc(-c3nc(Nc4ccc(N5CCNCC5)cn4)ncc3F)cc21 (stereo unspecified) | 44
7 | CC1=Nc2ccc(-c3nc(Nc4ccc(N5CCNCC5)cn4)ncc3F)cc2C12CCCC2 | 4

species on record: Homo sapiens; experiment: Selectivity ratio of IC50 for CDK1/Cyclin-A2 (unknown origin) to IC50 for CDK6/Cyclin-D3 (unknown origin); conditions: not given

Row | SMILES | Ratio IC50
8 | CC1=Nc2ccc(-c3nc(Nc4ccc(N5CCN(C)CC5)cn4)ncc3F)cc2C12CCCC2 | 46
9 | CCC1(C)C(C)=Nc2c(F)cc(-c3nc(Nc4ccc(N5CCNCC5)cn4)ncc3F)cc21 (stereo unspecified) | 28
10 | CC1=Nc2ccc(-c3nc(Nc4ccc(N5CCNCC5)cn4)ncc3F)cc2C12CCCC2 | 58
11 | CC1=Nc2c(F)cc(-c3nc(Nc4ccc(N5CCN(C)CC5)cn4)ncc3F)cc2C12CCCC2 | 16

test system: not listed separately; experiment: Oral bioavailability in Sprague-Dawley rat at 5 mg/kg administered as single dose by LC-MS/MS analysis; type: ADME, organism-based; conditions: Sprague-Dawley, in vivo

Row | SMILES | bioavailability [%]
12 | CC1=Nc2ccc(-c3nc(Nc4ccc(N5CCN(C)CC5)cn4)ncc3F)cc2C12CCCC2 | 24
13 | CCC1(C)C(C)=Nc2c(F)cc(-c3nc(Nc4ccc(N5CCNCC5)cn4)ncc3F)cc21 (stereo unspecified) | 23
14 | CC1=Nc2ccc(-c3nc(Nc4ccc(N5CCNCC5)cn4)ncc3F)cc2C12CCCC2 | 34
15 | CC1=Nc2c(F)cc(-c3nc(Nc4ccc(N5CCN(C)CC5)cn4)ncc3F)cc2C12CCCC2 | 21

test system: not listed separately; experiment: Cmax in Sprague-Dawley rat at 5 mg/kg, po administered as single dose by LC-MS/MS analysis; type: ADME, organism-based; set-up: dose 5 mg/kg, route oral; conditions: in vivo

Row | SMILES | Cmax [ng/mL]
16 | CC1=Nc2ccc(-c3nc(Nc4ccc(N5CCN(C)CC5)cn4)ncc3F)cc2C12CCCC2 | 28.9
17 | CCC1(C)C(C)=Nc2c(F)cc(-c3nc(Nc4ccc(N5CCNCC5)cn4)ncc3F)cc21 (stereo unspecified) | 18
18 | CC1=Nc2ccc(-c3nc(Nc4ccc(N5CCNCC5)cn4)ncc3F)cc2C12CCCC2 | 80.3
19 | CC1=Nc2c(F)cc(-c3nc(Nc4ccc(N5CCN(C)CC5)cn4)ncc3F)cc2C12CCCC2 | 37

test system: not listed separately; experiment: Half life in Sprague-Dawley rat at 2 mg/kg, iv administered as single dose by LC-MS/MS analysis; type: ADME, organism-based; conditions: in vivo

Row | SMILES | half-life [h]
20 | CC1=Nc2ccc(-c3nc(Nc4ccc(N5CCN(C)CC5)cn4)ncc3F)cc2C12CCCC2 | 4.8
21 | CCC1(C)C(C)=Nc2c(F)cc(-c3nc(Nc4ccc(N5CCNCC5)cn4)ncc3F)cc21 (stereo unspecified) | 3
22 | CC1=Nc2ccc(-c3nc(Nc4ccc(N5CCNCC5)cn4)ncc3F)cc2C12CCCC2 | 4.8
23 | CC1=Nc2c(F)cc(-c3nc(Nc4ccc(N5CCN(C)CC5)cn4)ncc3F)cc2C12CCCC2 | 3.8

biological target: CDK6/cyclin D3 (Homo sapiens, UniProt Q00534); experiment: Inhibition of CDK6/Cyclin-D3 (unknown origin) using histoneH1 as substrate after 90 mins by ADP-Glo assay; type: protein-complex assay; conditions: not given
Sequence (P30281 whole entry): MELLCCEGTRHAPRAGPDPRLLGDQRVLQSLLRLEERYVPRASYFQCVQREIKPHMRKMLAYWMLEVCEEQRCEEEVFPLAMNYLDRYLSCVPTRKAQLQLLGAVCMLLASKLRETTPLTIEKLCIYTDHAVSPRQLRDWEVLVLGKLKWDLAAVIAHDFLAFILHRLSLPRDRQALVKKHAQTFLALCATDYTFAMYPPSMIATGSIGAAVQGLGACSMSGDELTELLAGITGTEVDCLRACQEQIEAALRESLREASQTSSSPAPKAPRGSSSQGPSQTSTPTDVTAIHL
Sequence (Q00534 whole entry): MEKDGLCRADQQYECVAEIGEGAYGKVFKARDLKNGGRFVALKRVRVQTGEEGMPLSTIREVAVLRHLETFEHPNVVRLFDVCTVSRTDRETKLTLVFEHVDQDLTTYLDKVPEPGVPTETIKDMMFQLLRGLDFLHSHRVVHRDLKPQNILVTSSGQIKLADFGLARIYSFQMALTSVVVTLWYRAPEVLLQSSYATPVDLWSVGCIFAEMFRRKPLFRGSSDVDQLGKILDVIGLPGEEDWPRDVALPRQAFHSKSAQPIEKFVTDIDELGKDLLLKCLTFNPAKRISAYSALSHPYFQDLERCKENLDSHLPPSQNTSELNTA

Row | SMILES | IC50 [nM]
24 | CC1=Nc2ccc(-c3nc(Nc4ccc(N5CCN(C)CC5)cn4)ncc3F)cc2C12CCCC2 | 9
25 | CCC1(C)C(C)=Nc2c(F)cc(-c3nc(Nc4ccc(N5CCNCC5)cn4)ncc3F)cc21 (stereo unspecified) | 3
26 | CC1=Nc2ccc(-c3nc(Nc4ccc(N5CCNCC5)cn4)ncc3F)cc2C12CCCC2 | 4

biological target: CDK1/Cyclin A (Homo sapiens, UniProt P06493); experiment: Inhibition of CDK1/Cyclin-A2 (unknown origin) using histone-H1 as substrate after 90 mins by ADP-Glo assay; type: protein-complex assay; conditions: not given
Sequence (P06493 whole entry): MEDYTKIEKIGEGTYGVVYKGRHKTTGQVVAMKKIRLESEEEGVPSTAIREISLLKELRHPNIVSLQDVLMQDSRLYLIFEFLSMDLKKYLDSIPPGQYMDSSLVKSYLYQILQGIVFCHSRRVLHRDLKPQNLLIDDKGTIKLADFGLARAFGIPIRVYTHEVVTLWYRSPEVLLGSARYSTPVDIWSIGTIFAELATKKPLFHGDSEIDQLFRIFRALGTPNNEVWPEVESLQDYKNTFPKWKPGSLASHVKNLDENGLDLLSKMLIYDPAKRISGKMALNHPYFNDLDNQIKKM
Sequence (P20248 whole entry, further chain): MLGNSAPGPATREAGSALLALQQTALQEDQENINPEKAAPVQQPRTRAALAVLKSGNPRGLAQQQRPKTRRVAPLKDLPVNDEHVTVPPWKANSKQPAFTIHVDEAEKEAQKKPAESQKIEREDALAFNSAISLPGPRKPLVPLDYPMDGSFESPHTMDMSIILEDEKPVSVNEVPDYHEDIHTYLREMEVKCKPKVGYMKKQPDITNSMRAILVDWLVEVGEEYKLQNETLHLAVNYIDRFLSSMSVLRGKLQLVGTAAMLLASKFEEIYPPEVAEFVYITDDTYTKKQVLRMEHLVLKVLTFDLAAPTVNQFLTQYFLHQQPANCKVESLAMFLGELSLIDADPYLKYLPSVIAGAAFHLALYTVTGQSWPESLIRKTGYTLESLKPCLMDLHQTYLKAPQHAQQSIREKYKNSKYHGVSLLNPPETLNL

Row | SMILES | IC50 [nM]
27 | CCC1(C)C(C)=Nc2c(F)cc(-c3nc(Nc4ccc(N5CCNCC5)cn4)ncc3F)cc21 (stereo unspecified) | 84

test system: not listed separately; experiment: Clearance in Sprague-Dawley rat at 2 mg/kg, iv administered as single dose by LC-MS/MS analysis; type: ADME, organism-based; conditions: in vivo

Row | SMILES | clearance [mL/min/kg]
28 | CC1=Nc2ccc(-c3nc(Nc4ccc(N5CCN(C)CC5)cn4)ncc3F)cc2C12CCCC2 | 72.9
29 | CCC1(C)C(C)=Nc2c(F)cc(-c3nc(Nc4ccc(N5CCNCC5)cn4)ncc3F)cc21 (stereo unspecified) | 125
30 | CC1=Nc2ccc(-c3nc(Nc4ccc(N5CCNCC5)cn4)ncc3F)cc2C12CCCC2 | 28.3
31 | CC1=Nc2c(F)cc(-c3nc(Nc4ccc(N5CCN(C)CC5)cn4)ncc3F)cc2C12CCCC2 | 42.3

test system: not listed separately; experiment: AUC (0 to 24 hrs) in Sprague-Dawley rat at 5 mg/kg, po administered as single dose by LC-MS/MS analysis; type: ADME, organism-based; set-up: time < 24 hr, dose 5 mg/kg, route oral; conditions: in vivo

Row | SMILES | AUC(0-t) at 24 h [ng·h/mL]
32 | CC1=Nc2ccc(-c3nc(Nc4ccc(N5CCN(C)CC5)cn4)ncc3F)cc2C12CCCC2 | 269
33 | CCC1(C)C(C)=Nc2c(F)cc(-c3nc(Nc4ccc(N5CCNCC5)cn4)ncc3F)cc21 (stereo unspecified) | 145
34 | CC1=Nc2ccc(-c3nc(Nc4ccc(N5CCNCC5)cn4)ncc3F)cc2C12CCCC2 | 980
35 | CC1=Nc2c(F)cc(-c3nc(Nc4ccc(N5CCN(C)CC5)cn4)ncc3F)cc2C12CCCC2 | 386

test system: not listed separately; experiment: Half life in Sprague-Dawley rat at 5 mg/kg, po administered as single dose by LC-MS/MS analysis; type: ADME, organism-based; conditions: in vivo

Row | SMILES | half-life [h]
36 | CC1=Nc2c(F)cc(-c3nc(Nc4ccc(N5CCN(C)CC5)cn4)ncc3F)cc2C12CCCC2 | 5.1

test system: not listed separately; experiment: Volume of distribution at steady state in Sprague-Dawley rat at 2 mg/kg, iv administered as single dose by LC-MS/MS analysis; type: ADME, organism-based; conditions: in vivo, read-out: Vdss

Row | SMILES | Vd [L/kg]
37 | CC1=Nc2ccc(-c3nc(Nc4ccc(N5CCN(C)CC5)cn4)ncc3F)cc2C12CCCC2 | 15.7
38 | CCC1(C)C(C)=Nc2c(F)cc(-c3nc(Nc4ccc(N5CCNCC5)cn4)ncc3F)cc21 (stereo unspecified) | 28.1
39 | CC1=Nc2ccc(-c3nc(Nc4ccc(N5CCNCC5)cn4)ncc3F)cc2C12CCCC2 | 11
40 | CC1=Nc2c(F)cc(-c3nc(Nc4ccc(N5CCN(C)CC5)cn4)ncc3F)cc2C12CCCC2 | 8.5

test system: not listed separately; experiment: AUC (0 to infinity) in Sprague-Dawley rat at 5 mg/kg, po administered as single dose by LC-MS/MS analysis; type: ADME, organism-based; set-up: dose 5 mg/kg, route oral, time infinity; conditions: Sprague-Dawley, in vivo

Row | SMILES | AUC(0-inf) [ng·h/mL]
41 | CC1=Nc2ccc(-c3nc(Nc4ccc(N5CCN(C)CC5)cn4)ncc3F)cc2C12CCCC2 | 382
42 | CC1=Nc2c(F)cc(-c3nc(Nc4ccc(N5CCN(C)CC5)cn4)ncc3F)cc2C12CCCC2 | 420

test system: not listed separately; experiment: AUC (0 to 24 hrs) in Sprague-Dawley rat at 2 mg/kg, iv administered as single dose by LC-MS/MS analysis; type: ADME, organism-based; set-up: dose 2 mg/kg, time < 24 hr, route intravenous; conditions: in vivo

Row | SMILES | AUC(0-t) at 24 h [ng·h/mL]
43 | CC1=Nc2ccc(-c3nc(Nc4ccc(N5CCN(C)CC5)cn4)ncc3F)cc2C12CCCC2 | 442
44 | CCC1(C)C(C)=Nc2c(F)cc(-c3nc(Nc4ccc(N5CCNCC5)cn4)ncc3F)cc21 (stereo unspecified) | 256
45 | CC1=Nc2ccc(-c3nc(Nc4ccc(N5CCNCC5)cn4)ncc3F)cc2C12CCCC2 | 1140
46 | CC1=Nc2c(F)cc(-c3nc(Nc4ccc(N5CCN(C)CC5)cn4)ncc3F)cc2C12CCCC2 | 761
